ChEMBL document CHEMBL3430912, “GSK Tres Cantos Anti-Kinetoplastid Screening (TCAKS) Data”
pIC50: −log10 of the molar value.

How the values were obtained:
Trypanosoma cruzi [1] = assay: GSK_TCAKS: pIC50 Trypanosoma cruzi viability assay using beta-GAL activity. This assay was run at single shot at 5uM compound concentration per well. The biological reagents consisted of NIH-3T3 host cells and trypomastigotes parasitic cells; both cell types were set to a 3.3 * 10^5 cells/mL dilution in assay DMEM by means of a CASY cell counter device using a 60um capillary. 6 uL of the mixture were dispensed per well (about 1 * 10^3 host-cells and 1 * 10^3 parasites) with a Multidrop Combi dispenser. […] In all wells, the percentage of DMSO never exceeded 0.5%. Plates incubated for four days at 37C, 5% CO2. The substrate used for the assay fluorescence intensity (FLINT) readout was resorufin-beta-D-galactopiranoside (Sigma-Aldrich) at 5uM per well. It was diluted in PBS supplemented with the soft detergent Igepal (Fluka).; type: functional, organism-based, Mus musculus; conditions: Tulahuen, NIH3T3
Trypanosoma cruzi [2] = assay: (§1) GSK_TCAKS: pIC50 Trypanosoma cruzi Imaging: Infected Cells. […] Cells were then washed once with PBS before infection. T. cruzi trypomastigotes, collected at days 5 to 8 after infection from LLC-MK2 parasite infected cultures, were allowed to swim out for 4h at 37C from a centrifuged pellet (2,500 rpm/10 min/room temperature). Trypomastigotes were then collected and counted in a CASY Cell Counter. Trypomastigotes, in supplemented DMEM, were added to H9c2 cultures in a multiplicity of infection of 1 and incubated for 18 h. Cells were washed once with PBS before incubation of the infected H9c2 monolayer with trypsin (Life-Technologies) to detach cells from the flask. Cells were counted in a CASY Cell Counter using a 150 um capillary and their density set at 5 * 10^4 cells per mL in supplemented assay DMEM. Infected H9c2 were dispensed into 384-well poly-lysine coated assay plates at 50uL per well using a Multidrop Combi dispenser. After seeding them, the plates were incubated at 37C, 5% CO2 for 72h. Cultures were then fixed and stained by addition of 50 uL of a solution containing 8% formaldehyde and 4 uM DRAQ5 DNA dye (BioStatus, UK) per well. […] Five images were collected per well for reliable statistical analysis. Automated image analysis was performed with a script developed on Acapella High Content Imaging and Analysis Software (PerkinElmer). Output: percentage of infected cells per well as a second infection marker.; type: functional, organism-based, Rattus norvegicus; conditions: H9c2, 4 h
Trypanosoma cruzi [3] = assay: GSK_TCAKS: pIC50 Trypanosoma cruzi Imaging: Amastigotes/Cell. […] Cells were then washed once with PBS before infection. T. cruzi trypomastigotes, collected at days 5 to 8 after infection from LLC-MK2 parasite infected cultures, were allowed to swim out for 4h at 37C from a centrifuged pellet (2,500 rpm/10 min/room temperature). Trypomastigotes were then collected and counted in a CASY Cell Counter. Trypomastigotes, in supplemented DMEM, were added to H9c2 cultures in a multiplicity of infection of 1 and incubated for 18 h. Cells were washed once with PBS before incubation of the infected H9c2 monolayer with trypsin (Life-Technologies) to detach cells from the flask. Cells were counted in a CASY Cell Counter using a 150 um capillary and their density set at 5 * 10^4 cells per mL in supplemented assay DMEM. Infected H9c2 were dispensed into 384-well poly-lysine coated assay plates at 50uL per well using a Multidrop Combi dispenser. After seeding them, the plates were incubated at 37C, 5% CO2 for 72h. Cultures were then fixed and stained by addition of 50 uL of a solution containing 8% formaldehyde and 4 uM DRAQ5 DNA dye (BioStatus, UK) per well. […] Five images were collected per well for reliable statistical analysis. Automated image analysis was performed with a script developed on Acapella High Content Imaging and Analysis Software (PerkinElmer). Output: number of amastigotes per cell as infection level measurement.; type: functional, organism-based, Rattus norvegicus; conditions: H9c2, 4 h
Trypanosoma cruzi [4] = assay: as §1, with “H2C9” for “Trypanosoma cruzi”, “H9c2 Host Cardiomyocytes.” for “Infected Cells.”, “Number” for “percentage”, “H9c2 Host Cardiomyocytes nuclei to determine drug-related cytotoxicity.” for “infected cells per well as a second infection marker.”; type: functional, organism-based, Rattus norvegicus; conditions: H9c2, 4 h
Leishmania donovani [5] = assay: GSK_TCAKS: pIC50 Leishmania donovani viability assay using fluorescence intensity. Assay plates (1536-well) were prepared by adding 30nL per well of compound. For single shot assay, the final compound concentration was 5uM. […] Briefly, eGFP LdBOB axenic amastigotes were harvested, fixed and counted in a CASY cell counter (Roche-Applied Science). A final concentration of 1.5 * 10^5 cells per well were prepared in amastigote media containing 500 U/mL penicillin/streptomycin (Invitrogen) and 6uL was dispensed to each experimental well using a Multidrop Combi dispenser (Thermo Scientific). 6uL of assay media was dispensed to control columns used as reference for 100% compound response. Following incubation for 72 h at 37C, 5% CO2, 2 uL of resazurin was added to each well at a final concentration of 0.5 mM in phosphate buffered saline (PBS) with IGEPAL (Sigma-Aldrich), 0.05% (v/v).; type: functional, organism-based
Leishmania donovani [6] = assay: GSK_TCAKS: pIC50 Leishmania donovani Imaging: Infected Macrophages. Assay plates (384-well) were prepared by adding 250nL of compound to each well. For single shot assay, the final compound concentration was 5 uM. […] Automated image analysis was performed with a script developed on Acapella High Content Imaging and Analysis Software (PerkinElmer). Output: Percent of infected macrophage cells were reported for each well.; type: functional, organism-based, Homo sapiens; conditions: THP-1
Leishmania donovani [7] = assay: GSK_TCAKS: pIC50 Leishmania donovani Imaging: Amastigotes/Macrophages. Assay plates (384-well) were prepared by adding 250nL of compound to each well. For single shot assay, the final compound concentration was 5 uM. […] Automated image analysis was performed with a script developed on Acapella High Content Imaging and Analysis Software (PerkinElmer). Output: Average number of amastigotes per macrophage cell were reported for each well.; type: functional, organism-based, Homo sapiens; conditions: THP-1
Leishmania donovani [8] = assay: GSK_TCAKS: pIC50 Leishmania donovani Imaging: THP-1 Host Macrophages. Assay plates (384-well) were prepared by adding 250nL of compound to each well. For single shot assay, the final compound concentration was 5 uM. […] Automated image analysis was performed with a script developed on Acapella High Content Imaging and Analysis Software (PerkinElmer). Output: THP-1 cell count were reported for each well.; type: functional, organism-based, Homo sapiens
[9] = tested on: Trypanosoma brucei brucei; assay: GSK_TCAKS: pIC50 Trypanosoma brucei viability assay using fluorescence intensity. Assay plates (1536-well) were prepared by dispensing 25nL of compound solution per well using an Echo acoustic dispenser (Labcyte).; type: functional, organism-based; conditions: Lister 427, 2 h
[10] = tested on: Trypanosoma brucei brucei; assay: GSK_TCAKS: pIC50 Trypanosoma brucei viability assay using luminiscence. Assay plates (1536-well) were prepared. T. brucei cultures were harvested and counted in a CASY cell counter. A parasite suspension was prepared at a final concentration of 5 * 10^4 cells/mL in complete HMI9 medium and 6uL was dispensed to all wells containing compounds using a Multidrop Combi dispenser. 6uL of HMI9 media with 0.4% DMSO were dispensed to control columns. Plates were incubated for 24 h at 37C, 5% CO2 then tempered for 10 min at room temperature. ATP content was quantified by adding 4 uL of CellTiter-Glo Reagent (Promega) according to the manufacturer's instructions. Luminescence was measured using a ViewLux.; type: functional, organism-based; conditions: Lister 427, CASY
[11] = GSK_TCAKS: pIC50 HepG2 human cell line viability assay using luminiscence. […] Seeding density was checked to ensure that new mono-layers were not more than 50% confluent at the time of harvesting. Cell suspension was added to 500 mL of the same medium at a final density of 1.2 * 10^5 cells/mL. This cell suspension was dispensed (25 uL, 3000 cells per well) into 384-well clear-bottom plates using a Multidrop Combi dispenser. Prior to addition of the cell suspension, the screening compounds (250 nL) were pre-dispensed into the plates with an Echo liquid handler. Plates were incubated for 48 h at 37C, 5% CO2. After incubation, plates equilibrated at room temperature for 30 min before proceeding to develop the luminescent signal. The signal developer, CellTiter-Glo Reagent, was allowed to equilibrate at room temperature for 30 min and added to the plates (25uL per well) using a Multidrop Combi dispenser. Plates were left for 10 min at room temperature for stabilization and then read using a ViewLux.; type: toxicity, cell-based
NIH3T3 = assay: GSK_TCAKS: pIC50 NIH 3T3 cell line viability assay using luminiscence. Tissue culture surface treated assay plates (1536-well) were used. […] The 100% cells survival control was determined exposing the host-cells to a 0.5% DMSO concentration, whereas the 100% toxicity control was achieved by seeding the cells in presence of Amphotericin B at 50uM. Plates were incubated for four days at 37C, 5% CO2. The assay readout was developed by addition of 5uL of CellTiter-Glo Reagent following the manufacturer's instructions. Luminiscence was measured using a ViewLux.; type: functional, cell-based; conditions: Mus musculus, NIH3T3, 96 h
[12] = target: Sterol 14-alpha demethylase (Trypanosoma cruzi (strain CL Brener), UniProt Q7Z1V1); assay: GSK_TCAKS: pIC50 CYP51 from Trypanosoma cruzi.; type: functional
Sterol 14-alpha demethylase, sequence (Q7Z1V1 whole entry): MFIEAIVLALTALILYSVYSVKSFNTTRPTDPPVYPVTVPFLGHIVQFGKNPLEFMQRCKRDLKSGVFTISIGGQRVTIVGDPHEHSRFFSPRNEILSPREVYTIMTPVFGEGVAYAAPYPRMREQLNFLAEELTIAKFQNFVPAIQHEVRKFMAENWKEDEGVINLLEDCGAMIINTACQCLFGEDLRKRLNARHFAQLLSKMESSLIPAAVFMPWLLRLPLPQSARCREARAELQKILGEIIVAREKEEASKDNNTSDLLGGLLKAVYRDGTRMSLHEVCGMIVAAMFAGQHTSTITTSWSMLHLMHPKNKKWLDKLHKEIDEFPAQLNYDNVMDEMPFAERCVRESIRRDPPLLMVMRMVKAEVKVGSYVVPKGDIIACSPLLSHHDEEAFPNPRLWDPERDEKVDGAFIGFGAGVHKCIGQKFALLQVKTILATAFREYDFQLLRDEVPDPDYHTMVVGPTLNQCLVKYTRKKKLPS

| Structure (SMILES) | pIC50 (Trypanosoma cruzi [1]) | pIC50 (Trypanosoma cruzi [2]) | pIC50 (Trypanosoma cruzi [3]) | pIC50 (Trypanosoma cruzi [4]) | pIC50 (Leishmania donovani [5]) | pIC50 (Leishmania donovani [6]) | pIC50 (Leishmania donovani [7]) | pIC50 (Leishmania donovani [8]) | pIC50 [9] | pIC50 [10] | IC50 at 48 h [11] | pIC50 (NIH3T3) | pIC50 [12] |
| --- | --- | --- | --- | --- | --- | --- | --- | --- | --- | --- | --- | --- | --- |
| O=c1cc(NCCCNC2CCOc3c(I)cc(Cl)cc32)[nH]c2ccccc12 (stereo not drawn) | 6.10 | 6.50 | 6.80 | 4.60 | 4.50 | 4.70 | 4.90 | 4.70 | 8.00 | 7.70 | 63.1 µM | 4.60 | 4.80 |
| N#Cc1nc(C=Cc2ccccc2)oc1NCc1cccnc1 | 6.60 | 6.40 | 6.40 | 4.80 | 4.60 | 4.40 | 4.50 | 4.50 | 4.80 | 4.50 | > 100 µM | 4.90 |  |
| CCN(C)Cc1ccc(N2CCC(NS(=O)(=O)c3ccc4c(c3)CCO4)CC2)nc1 | 6.20 | 5.90 | 6.00 | < 4.30 | < 4.30 | < 4.30 |  | < 4.30 | < 4.40 | 4.40 | > 100 µM | 4.90 | < 4.00 |
| Cn1c(CN2CCN(c3ncc(C(F)(F)F)cc3Cl)CC2)nc2ccncc21 | 6.10 | 6.00 | 6.00 | < 4.30 | 5.30 | < 4.30 |  | 5.20 | 5.20 | < 4.40 | > 100 µM | 5.00 | 7.10 |
| FC(F)(F)c1cc(C2CCCN(Cc3c[nH]c4ccccc34)C2)nc2ncnn12 (stereo not drawn) | 5.80 | 5.00 | 5.20 | < 4.30 | < 4.30 | < 4.30 | < 4.30 | 4.80 | < 4.40 | < 4.40 | > 100 µM | 4.70 |  |
| Fc1ccccc1N1C[C@H]2CCN(c3cccnc3)C[C@H]2C1 | 6.70 | 6.70 | 6.70 | < 4.30 | 4.90 | < 4.30 |  | < 4.30 | 4.50 | < 4.40 | > 100 µM | 4.90 | 7.20 |
| Cn1cncc1CN1CCC2(CC1)COC(Cc1ccccc1)C2 (stereo not drawn) | 6.50 | 6.30 | 6.50 | < 4.30 | 4.90 | < 4.30 |  | < 4.30 | < 4.40 | < 4.40 | > 100 µM | 4.60 | 6.00 |
| CN(C)CCOc1ccc(N2CCN(S(=O)(=O)c3ccc(Cl)cc3)CC2)cc1 | 6.20 | 6.20 | 6.30 | < 4.30 | 4.40 | 4.50 | 4.50 | < 4.30 | 4.70 | 4.60 | 50.1 µM | 4.80 |  |
| CC1(C)CCC(=Cc2ccc(Cl)cc2)CC1(O)Cn1ccnc1 (stereo not drawn) | 8.20 | 8.10 | 8.30 | 4.50 | 5.60 | 5.10 | 5.70 | 4.90 | 5.00 | 4.60 | 50.1 µM | 4.80 | 7.30 |
| O=C(NCC1CCCCC1)c1cc(=O)c2ccccc2o1 | 6.35 | 6.20 | 6.30 | 4.50 | 5.30 | 4.80 | 5.20 | < 4.30 | 6.00 | 5.90 | 25.1 µM | 4.50 | < 4.00 |
